Patent publication US12410160B2 (Gilead Sciences, Inc., priority 2021, dated 2025)

Experiments:
human KHK-A = human KHK-A (Homo sapiens (Human), UniProt P50053); test: KHK Biochemical Assay (IC50), ADP-Glo, KHK-A; details: average of at least two separate assays
Summary of the method: (§1)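 His-tagged enzyme expressed in BL21 (DE3), Ni-NTA purified. Compounds, serially diluted 1:3 in DMSO, pre-incubated 30 min with enzyme in 50 mM Hepes pH 7.4, 140 mM KCl, 5 mM MgCl2, 0.01% Triton-X, then ATP and fructose added; 4 h at room temperature. ADP formation read by ADP-Glo luminescence.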

human KHK-C = human KHK-C (Homo sapiens (Human), UniProt P50053); test: KHK Biochemical Assay (IC50), ADP-Glo, KHK-C; details: average of at least two separate assays
Sequence of human KHK-C (P50053 whole entry): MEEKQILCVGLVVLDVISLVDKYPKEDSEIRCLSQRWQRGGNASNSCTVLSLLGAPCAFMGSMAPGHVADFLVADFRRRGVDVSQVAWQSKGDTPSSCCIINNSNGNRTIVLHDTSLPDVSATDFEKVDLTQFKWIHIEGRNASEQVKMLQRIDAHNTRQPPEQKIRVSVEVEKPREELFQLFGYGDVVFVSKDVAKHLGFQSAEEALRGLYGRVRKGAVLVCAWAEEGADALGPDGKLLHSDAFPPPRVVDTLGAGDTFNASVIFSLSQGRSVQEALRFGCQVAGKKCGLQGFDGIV
Summary of the method: as §1

Sequence of human KHK-A (P50053 other isoform, or with tags, fused parts or gaps): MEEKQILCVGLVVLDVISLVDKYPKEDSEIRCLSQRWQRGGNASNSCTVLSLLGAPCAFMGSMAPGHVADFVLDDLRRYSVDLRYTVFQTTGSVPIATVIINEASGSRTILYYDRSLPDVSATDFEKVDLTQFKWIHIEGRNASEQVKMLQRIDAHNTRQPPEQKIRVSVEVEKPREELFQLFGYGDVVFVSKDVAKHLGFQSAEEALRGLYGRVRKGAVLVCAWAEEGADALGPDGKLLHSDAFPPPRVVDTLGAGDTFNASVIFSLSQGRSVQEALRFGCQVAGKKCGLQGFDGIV

Row | SMILES | IC50 (human KHK-A; ADP-Glo) [nM] | IC50 (human KHK-C; ADP-Glo) [nM] | IC50 (human KHK-A) [nM] | IC50 (human KHK-C) [nM]
1 | C[C@H]1[C@H](O)CN1c1nc(-c2cnc3c(c2)OC[C@H]3NS(C)(=O)=O)c2c(n1)C(F)(F)CC2 (single isomer, unassigned) [Example 822] | > 100 | 24.2 | – | –
2 | C[C@H]1CCN1c1nc2c(c(-c3cccc(C(=O)N4CC[C@H]4C(=O)O)c3)n1)CCC2 [Example 77, (S)-1-(3-(2-((S)-2-methylazetidin-1-yl)-6,7-dihydro-5H-cyclopenta[d]pyrimidin-4-yl)benzoyl)azetidine-2-carboxylic acid] | 285 | 315 | – | –
3 | COC(=O)NC1COc2cc(-c3nc(N4C[C@@H](O)[C@@H]4C)nc4c3CCC4(F)F)cc(OC)c21 (stereo partly drawn) [Example 824, Methyl N-[6-[7,7-difluoro-2-[(2S,3R)-3-hydroxy-2-methyl-azetidin-1-yl]-5,6-dihydrocyclopenta[d]pyrimidin-4-yl]-4-methoxy-2,3-dihydrobenzofuran-3-yl]carbamate] | 91.6 | 8.6 | – | –
4 | C[C@H]1CCN1c1nc2c(c(-c3ccc4c(c3)CC(F)C4NS(C)(=O)=O)n1)CCC2 (stereo partly drawn) [Example 885, N-(2-fluoro-5-(2-((S)-2-methylazetidin-1-yl)-6,7-dihydro-5H-cyclopenta[d]pyrimidin-4-yl)-2,3-dihydro-1H-inden-1-yl)methanesulfonamide] | 150 | 26.1 | – | –
5 | C[C@H]1CCN1c1nc2c(c(-c3ccc4[nH]nc(C(F)(F)F)c4c3)n1)CCC2 [Example 243, 5-[2-[(2S)-2-methylazetidin-1-yl]-6,7-dihydro-5H-cyclopenta[d]pyrimidin-4-yl]-3-(trifluoromethyl)-1H-indazole] | > 5000 | > 5000 | – | –
6 | NS(=O)(=O)c1cccc(-c2nc(N3CC[C@@H]4[C@H](O)C[C@@H]43)nc3c2CCC3)c1 (racemic) [Example 80, (rac)-3-(2-((1S*,5S*,6R*)-6-hydroxy-2-azabicyclo[3.2.0]heptan-2-yl)-6,7-dihydro-5H-cyclopenta[d]pyrimidin-4-yl)benzenesulfonamide] | 865 | 957 | – | –
7 | CC1CCc2c(-c3ccccc3)nc(N3CC[C@@H]3C)nc21 (stereo partly drawn) [Example 336, 7-methyl-2-[(2S)-2-methylazetidin-1-yl]-4-phenyl-6,7-dihydro-5H-cyclopenta[d]pyrimidine] | 13200 | 20100 | – | –
8 | C[C@H]1CCN1c1nc2c(c(-c3cc(NS(C)(=O)=O)cc(C(N)=O)c3)n1)CCC2 [Example 300, (S)-3-(2-(2-methylazetidin-1-yl)-6,7-dihydro-5H-cyclopenta[d]pyrimidin-4-yl)-5-(methylsulfonamido)benzamide] | 42.8 | 33.6 | – | –
9 | c1ccc(-c2nc(C3CNC3)nc3c2CCC3)cc1 [Example 99, 2-(azetidin-3-yl)-4-phenyl-6,7-dihydro-5H-cyclopenta[d]pyrimidine] | > 5000 | > 5000 | – | –
10 | Cc1nc2cc(-c3nc(N4CC[C@@H]4C)nc4c3CCC4)ccc2s1 [Example 110, (S)-2-methyl-5-(2-(2-methylazetidin-1-yl)-6,7-dihydro-5H-cyclopenta[d]pyrimidin-4-yl)benzo[d]thiazole] | 322 | 136 | – | –
11 | COC(=O)Cc1cccc(-c2nc(N3CC[C@@H]3C)nc3c2CCC3)c1 [Example 3, methyl (S)-2-(3-(2-(2-methylazetidin-1-yl)-6,7-dihydro-5H-cyclopenta[d]pyrimidin-4-yl)phenyl)acetate] | 121 | 122 | – | –
12 | NC1(c2ccc(-c3nc(N4CCC4C(F)(F)F)nc4c3CCC4(F)F)cc2)COC1 (centres unmarked) [Example 683, 3-[4-[7,7-difluoro-2-[2-(trifluoromethyl)azetidin-1-yl]-5,6-dihydrocyclopenta[d]pyrimidin-4-yl]phenyl]oxetan-3-amine] | – | – | 2.4 | 0.9
13 | C[C@H]1[C@H](F)CN1c1nc2c(c(-c3ccc(S(N)(=O)=O)cc3)n1)CCC2 [Example 198, 4-[2-[(2S,3R)-3-fluoro-2-methyl-azetidin-1-yl]-6,7-dihydro-5H-cyclopenta[d]pyrimidin-4-yl]benzenesulfonamide] | 124 | 98.3 | – | –
14 | CC1OCC2(COc3cc(-c4nc(N5C[C@@H](O)[C@@H]5C)nc5c4CCC5(F)F)ccc32)NC1=O (stereo partly drawn) [Example 558, 6-(7,7-difluoro-2-((2S,3R)-3-hydroxy-2-methylazetidin-1-yl)-6,7-dihydro-5H-cyclopenta[d]pyrimidin-4-yl)-6′-methyl-2H-spiro[benzofuran-3,3′-morpholin]-5′-one] | – | – | 8.2 | 0.2
15 | C[C@H]1CCN1c1nc(-c2ccccc2)c2cccnc2n1 [Example 212, 2-[(2S)-2-methylazetidin-1-yl]-4-phenyl-pyrido[2,3-d]pyrimidine] | 10500 | 5590 | – | –
16 | C[C@H]1CCN1c1nc2c(c(-c3cccs3)n1)CCC2 [Example 45, (S)-2-(2-methylazetidin-1-yl)-4-(thiophen-2-yl)-6,7-dihydro-5H-cyclopenta[d]pyrimidine] | 118 | 108 | – | –

Row | SMILES | IC50 (human KHK-A; ADP-Glo) [nM] | IC50 (human KHK-C; ADP-Glo) [nM] | IC50 (human KHK-A) [nM] | IC50 (human KHK-C) [nM]
17 | C[C@H]1CCN1c1nc2c(c(-c3cnn(CCC(=O)O)c3)n1)CCC2 [Example 25, (S)-3-(4-(2-(2-methylazetidin-1-yl)-6,7-dihydro-5H-cyclopenta[d]pyrimidin-4-yl)-1H-pyrazol-1-yl)propanoic acid] | 142 | 104 | – | –
18 | C[C@H]1CCN1c1nc2c(c(-c3ccc4ncn(C)c4c3)n1)CCC2 [Example 853, (S)-1-methyl-6-(2-(2-methylazetidin-1-yl)-6,7-dihydro-5H-cyclopenta[d]pyrimidin-4-yl)-1H-benzo[d]imidazole] | 73.2 | 35.3 | – | –
19 | C[C@H]1[C@H](O)CN1c1nc2c(c(-c3cccc([C@@H]4C[C@H]4C(=O)O)c3)n1)CCC2 (single isomer, unassigned) [Example 114] | 51 | 46.2 | – | –
20 | C[C@H]1[C@H](O)CN1c1nc(-c2ccc3c(c2)CC2OC(=O)NC32)c2c(n1)C(F)(F)CC2 (stereo partly drawn) [Example 557, 6-(7,7-difluoro-2-((2S,3R)-3-hydroxy-2-methylazetidin-1-yl)-6,7-dihydro-5H-cyclopenta[d]pyrimidin-4-yl)-3,3a,8,8a-tetrahydro-2H-indeno[1,2-cl]oxazol-2-one] | – | – | 10.8 | 8.6
21 | C[C@H]1CCN1c1nc2c(c(-c3cccc(S(=N)(=O)CC(=O)N4CCC4)c3)n1)CCC2 (stereo partly drawn) [Example 877, (2-(azetidin-1-yl)-2-oxoethyl)(imino)(3-(2-((S)-2-methylazetidin-1-yl)-6,7-dihydro-5H-cyclopenta[d]pyrimidin-4-yl)phenyl)-λ^6-sulfanone] | 186 | 208 | – | –
22 | C[C@H]1CCN1c1nc2c(c(-c3ccc4c(c3)C3(CCC3)CNC4=O)n1)CCC2 [Example 865, (S)-6′-(2-(2-methylazetidin-1-yl)-6,7-dihydro-5H-cyclopenta[d]pyrimidin-4-yl)-2′,3′-dihydro-1′H-spiro[cyclobutane-1,4′-isoquinolin]-1′-one] | 25.4 | 17.3 | – | –
23 | C[C@H]1CCN1c1nc2c(c(-c3cccc(C(=O)NCCNC(=O)OC(C)(C)C)c3)n1)CCC2 [Example 51, tert-butyl (S)-(2-(3-(2-(2-methylazetidin-1-yl)-6,7-dihydro-5H-cyclopenta[d]pyrimidin-4-yl)benzamido)ethyl)carbamate] | 144 | 309 | – | –
24 | C[C@H]1CCN1c1nc2c(c(-c3ccc(C(N)=O)s3)n1)CCC2 [Example 56, (S)-5-(2-(2-methylazetidin-1-yl)-6,7-dihydro-5H-cyclopenta[d]pyrimidin-4-yl)thiophene-2-carboxamide] | 3.8 | 7.7 | – | –
25 | CNC(=O)c1ccc(-c2nc(N3CC[C@@H]3C)nc3c2CCC3)cc1 [Example 292, (S)—N-methyl-4-(2-(2-methylazetidin-1-yl)-6,7-dihydro-5H-cyclopenta[d]pyrimidin-4-yl)benzamide] | 65.7 | 89.1 | – | –
26 | C[C@H]1CCN1c1nc2c(c(-c3cccc(S(C)(=N)=O)n3)n1)CCC2 (stereo partly drawn) [Example 860, imino(methyl)(6-(2-((S)-2-methylazetidin-1-yl)-6,7-dihydro-5H-cyclopenta[d]pyrimidin-4-yl)pyridin-2-yl)-λ^6-sulfanone] | 191 | 224 | – | –
27 | C[C@H]1CCN1c1nc2c(c(-c3cccc(-c4noc(=O)[nH]4)c3)n1)CCC2 [Example 872, (S)-3-(3-(2-(2-methylazetidin-1-yl)-6,7-dihydro-5H-cyclopenta[d]pyrimidin-4-yl)phenyl)-1,2,4-oxadiazol-5(4H)-one] | 27 | 28.9 | – | –
28 | C[C@H]1[C@H](O)CN1c1nc(-c2ccc3c(c2)COC[C@@H]3NS(=O)(=O)C2CC2)c2c(n1)C(F)(F)CC2 [Example 579, N—((R)-7-(7,7-difluoro-2-((2S,3R)-3-hydroxy-2-methylazetidin-1-yl)-6,7-dihydro-5H-cyclopenta[d]pyrimidin-4-yl)isochroman-4-yl)cyclopropanesulfonamide] | – | – | 25 | 2.7
29 | COc1ccc(-c2nc(N3CC[C@@H]3C)nc3c2CCC3)cc1S(=N)(=O)CC1COCOC1 (stereo partly drawn) [Example 844, ((1,3-dioxan-5-yl)methyl)(imino)(2-methoxy-5-(2-((S)-2-methylazetidin-1-yl)-6,7-dihydro-5H-cyclopenta[d]pyrimidin-4-yl)phenyl)-λ^6-sulfanone] | 2.5 | 8.5 | – | –
30 | C[C@H]1[C@H](O)CN1c1nc(-c2ccc3c(c2)C(F)(F)C[C@@H]3NS(C)(=O)=O)c2c(n1)C(F)(F)CC2 (single isomer, unassigned) [Example 634] | – | – | 10.8 | 0.9
31 | CNCCNC(=O)c1cccc(-c2nc(N3CC[C@@H]3C)nc3c2CCC3)c1 [Example 53, (S)—N-(2-(methylamino)ethyl)-3-(2-(2-methylazetidin-1-yl)-6,7-dihydro-5H-cyclopenta[d]pyrimidin-4-yl)benzamide] | 130 | 194 | – | –
